Assay results: patent EP4745138A1, “THIO-GLUTARIMIDO ISOINDOLINONE DERIVATIVE, BIFUNCTIONAL PROTEIN DEGRADER CONTAINING SAME, AND USES THEREOF” (Gluetacs Therapeutics (Shanghai) Co., Ltd., priority 2023, dated 2025)
Read-outs that look alike come from different tables or passages of the source.

Assays:
EGFR = experiment: Western blot, target protein degradation in H1975 Cell; assay type: cell-based, Human; conditions: substrate protein remaining %, treated at 500 nM and 50 nM, 24 hours
Experimental: (§1) Conventional Western blot assay was performed to evaluate the effects of the compounds of the present disclosure on the expression of target proteins in cells.
(§2) (1) Cell Seeding and Protein Harvesting: The selected cells were processed according to the cell seeding procedure and protein harvesting procedure in Table II-2. Table II-2 Cell Seeding and Protein Harvesting Procedures
(§3) (2) To the collected supernatant, 5X SDS sample loading buffer was added, followed by denaturation at 95°C for 5 minutes. The denatured samples were then separated by SDS-PAGE electrophoresis on a polyacrylamide gel. Proteins were transferred to a nitrocellulose membrane (0.45 µm NC membrane), blocked with blocking buffer at room temperature for 1 hour, and subjected to antibody incubation and development procedures according to the antibody manufacturer's instructions (Cell Signaling Technology).
(§4) Half-Maximal Degradation Concentration value (the drug concentration required for degrading proteins by 50%, abbreviated as DC50) reads method: comparing the grayscale values of Western blot bands from drug-treated samples with those from blank DMSO-treated controls, and identifying the drug concentration range at which the grayscale value is half that of the DMSO-treated control bands.
(§5) DC50 values can be calculated using ImageJ software to measure grayscale values of Western blot bands from drug-treated samples. The concentration-response curve is fitted to estimate the drug concentration corresponding to half the grayscale value.
(§6) Target protein remaining (%) refers to the percentage of target protein remaining in cells after treatment with protein degrader compounds.
(§7) Calculation method for target protein remaining (%): Use ImageJ software to measure grayscale values of Western blot bands from drug (protein degrader)-treated samples. The grayscale value of drug-treated bands is divided by that of internal control protein bands, and the resulting quotient is normalized to obtain the relative percentage of remaining target protein after protein degrader treatment. Target protein degradation rate(%) = 1−target protein remaining(%). [formula]

[1] = biological target: T1, human Cereblon WT GST-tagged protein (Homo sapiens, UniProt Q96SW2); experiment: CRBN-binding affinity, HTRF (CEREBLON BINDING kit); conditions: for inhibition at 0.5 µM: read-out: Inhibition Rate at 0.5 µM (%); for inhibition at 2 µM: read-out: Inhibition Rate at 2 µM (%)
T1 construct: purchased CISBIO 64BDCRBNPEH
Method in brief: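 GST-tagged human wild-type Cereblon is mixed with test compound (final 2 µM and 0.5 µM) plus an anti-GST europium antibody/thalidomide-Red tracer pair. Binding is read as HTRF displacement, with buffer-only blank wells.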

RPMI-8226 = experiment: Tumor cell proliferation inhibition (CellTiter-Meiluncell Luminescent Cell Viability Assay); assay type: cell-based; conditions: Homo sapiens, 96 hours, Table I-3, EGFR inhibitors
Method in brief: (§8)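 Following overnight seeding, tumor cells received serial compound dilutions to final levels that included 10 nM and 500 nM. Viability was assessed by luminescence at the end of the specified exposure time. Cultures were kept at 37°C with 5% CO2.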

MV-4-11 = experiment: as above; assay type: cell-based; conditions: Homo sapiens, 96 hours; for inhibition at 0.01 µM: MV4-11, 10 nM, read-out: Inhibition Rate at 10 nM (%); for inhibition at 0.5 µM: MV4-11, 500 nM, read-out: Inhibition Rate at 500 nM (%)
Method in brief: as §8

FAK = biological target: T2, FAK (Homo sapiens, UniProt Q05397); experiment: Western blot, target protein degradation in A549 Cell; assay type: cell-based; conditions: substrate protein remaining %, treated at 500 nM and 50 nM, 24 hours
T2 construct: endogenous in cells; host or cells: A549
Experimental: as §1, §2, §3, §4, §5, §6, §7

MM.1S = experiment: Tumor cell proliferation inhibition (CellTiter-Meiluncell Luminescent Cell Viability Assay); assay type: cell-based; conditions: Homo sapiens, MM1.S, MM.1S, 96 hours, Table I-12, FAK inhibitors; for inhibition at 0.01 µM: 10 nM, read-out: Inhibition Rate at 10 nM (%); for inhibition at 0.5 µM: 500 nM, read-out: Inhibition Rate at 500 nM (%)
Method in brief: as §8

SW620 = experiment: as above; assay type: cell-based; conditions: Homo sapiens, 96 hours; for inhibition at 0.01 µM: SW-620, 10 nM, read-out: Inhibition Rate at 10 nM (%); for inhibition at 0.5 µM: SW-620, 500 nM, read-out: Inhibition Rate at 500 nM (%)
Method in brief: as §8

TMD8 = experiment: as above; assay type: cell-based; conditions: Homo sapiens, 96 hours; for inhibition at 0.01 µM: 10 nM, read-out: Inhibition Rate at 10 nM (%); for inhibition at 0.5 µM: 500 nM, read-out: Inhibition Rate at 500 nM (%)
Method in brief: (§9)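 Luminescent viability read-out (CellTiter-Meiluncell) after compound exposure for a specified time; IC50 determined. Seeding was done the day before dosing with serially diluted compound, final concentrations including 500 nM and 10 nM. Culture at 37°C, 5% CO2.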

CFPAC-1 = experiment: as above; assay type: cell-based; conditions: Homo sapiens, 96 hours, Table I-10, BCR-ABL inhibitors
Method in brief: as §9

[2] = 10 nM, read-out: Inhibition Rate at 10 nM (%)
[3] = 500 nM, read-out: Inhibition Rate at 500 nM (%)

T2 sequence (Q05397 whole entry): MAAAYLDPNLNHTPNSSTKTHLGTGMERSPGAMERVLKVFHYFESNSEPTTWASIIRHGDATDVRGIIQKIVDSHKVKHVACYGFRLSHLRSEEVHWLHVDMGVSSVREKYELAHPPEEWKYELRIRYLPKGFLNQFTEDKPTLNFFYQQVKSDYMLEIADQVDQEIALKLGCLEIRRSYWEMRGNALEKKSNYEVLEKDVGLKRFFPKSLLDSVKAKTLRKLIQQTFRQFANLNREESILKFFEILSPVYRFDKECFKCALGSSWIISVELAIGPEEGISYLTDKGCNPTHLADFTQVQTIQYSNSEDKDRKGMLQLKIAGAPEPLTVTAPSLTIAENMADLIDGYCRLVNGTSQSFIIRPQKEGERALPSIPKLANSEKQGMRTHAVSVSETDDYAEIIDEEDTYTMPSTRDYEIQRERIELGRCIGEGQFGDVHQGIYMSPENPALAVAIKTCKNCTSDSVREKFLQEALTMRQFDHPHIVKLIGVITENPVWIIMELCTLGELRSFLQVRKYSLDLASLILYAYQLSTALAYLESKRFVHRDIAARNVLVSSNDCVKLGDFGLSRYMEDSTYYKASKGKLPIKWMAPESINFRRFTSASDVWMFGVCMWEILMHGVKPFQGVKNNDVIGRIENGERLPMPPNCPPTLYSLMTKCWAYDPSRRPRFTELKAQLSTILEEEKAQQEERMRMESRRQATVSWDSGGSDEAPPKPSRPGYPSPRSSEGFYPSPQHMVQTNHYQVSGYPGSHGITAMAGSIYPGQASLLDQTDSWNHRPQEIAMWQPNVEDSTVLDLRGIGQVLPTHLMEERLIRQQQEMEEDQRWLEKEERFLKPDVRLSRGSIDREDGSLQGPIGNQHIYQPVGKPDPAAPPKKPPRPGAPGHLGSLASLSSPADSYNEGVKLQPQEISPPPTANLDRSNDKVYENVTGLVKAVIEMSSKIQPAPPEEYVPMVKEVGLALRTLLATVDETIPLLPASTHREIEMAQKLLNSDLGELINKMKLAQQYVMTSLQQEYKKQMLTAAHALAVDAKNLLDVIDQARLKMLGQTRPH
T1 sequence (Q96SW2 whole entry): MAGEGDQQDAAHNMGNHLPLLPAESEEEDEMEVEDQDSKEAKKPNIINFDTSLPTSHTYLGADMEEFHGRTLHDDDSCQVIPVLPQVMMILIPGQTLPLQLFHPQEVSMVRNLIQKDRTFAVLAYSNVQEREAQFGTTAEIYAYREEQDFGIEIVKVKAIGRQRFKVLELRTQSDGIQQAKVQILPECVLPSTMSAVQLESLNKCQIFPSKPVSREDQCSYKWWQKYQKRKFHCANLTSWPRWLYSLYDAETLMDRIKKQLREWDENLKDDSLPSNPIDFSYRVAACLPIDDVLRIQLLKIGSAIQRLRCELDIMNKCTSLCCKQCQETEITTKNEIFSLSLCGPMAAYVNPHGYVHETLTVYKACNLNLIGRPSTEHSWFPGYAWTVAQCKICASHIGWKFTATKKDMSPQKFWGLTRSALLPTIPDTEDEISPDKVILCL

| SMILES | inhibition at 0.5 µM [1] [%] | inhibition at 2 µM [1] [%] | Degradation of substrate protein FAK (FAK) | inhibition at 0.01 µM (MV-4-11; Table I-12, FAK inhibitors) [%] | inhibition at 0.5 µM (MV-4-11; Table I-12, FAK inhibitors) [%] | further results |
| --- | --- | --- | --- | --- | --- | --- |
| COc1cc(N2CCC(N(C)Cc3ccc4c(c3)C(=S)N(C3CCC(=O)NC3=O)C4)CC2)c(C)cc1Nc1ncc(Br)c(Nc2ccc3nccnc3c2P(C)(C)=O)n1 (stereo not shown) [GT-08761, 3-(6-(((1-(4-((5-bromo-4-((5-(dimethylphosphoryl)quinoxalin-6-yl)amino)pyrimidin-2-yl)amino)-5-methoxy-2-methylphenyl)piperidin-4-yl)(methyl)amino)methyl)-1-thioxoisoindolin-2-yl)piperidine-2,6-dione] | 60 to 80 | 80 to 100 |  |  |  | Degradation of substrate protein EGFR (EGFR): A (0% ≤ substrate protein remaining % ≤ 80%); inhibition at 0.01 µM (RPMI-8226; [2]): 20 to 30%; inhibition at 0.5 µM (RPMI-8226; [3]): 40 to 50%; inhibition at 0.01 µM (MV-4-11; Table I-3, EGFR inhibitors): 5 to 10%; inhibition at 0.5 µM (MV-4-11; Table I-3, EGFR inhibitors): 60 to 70% |
| CS(=O)(=O)c1cccc(CNc2nc(Nc3ccc(N4CCN(Cc5ccc6c(c5)CN(C5CCC(=O)NC5=O)C6=S)CC4)cc3)ncc2C(F)(F)F)c1 (stereo not shown) [GT-08780, 3-(5-((4-(4-((4-((3-(methylsulfonyl)benzyl)amino)-5-(trifluoromethyl)pyrimidin-2-yl)amino)phenyl)piperazin-1-yl)methyl)-1-thioxoisoindolin-2-yl)piperidine-2,6-dione] |  |  | A (0% ≤ substrate protein remaining % ≤ 80%) | 20 to 30 | 70 to 80 | inhibition at 0.01 µM (MM.1S): 20 to 30%; inhibition at 0.5 µM (MM.1S): 40 to 50%; inhibition at 0.01 µM (SW620; Table I-12, FAK inhibitors): 10 to 20%; inhibition at 0.5 µM (SW620; Table I-12, FAK inhibitors): 40 to 50% |
| CN(c1cccc(CNc2nc(Nc3ccc(N4CCN(Cc5ccc6c(c5)CN(C5CCC(=O)NC5=O)C6=S)CC4)cc3)ncc2C(F)(F)F)c1)S(C)(=O)=O (stereo not shown) [GT-08781, N-(3-(((2-((4-(4-((2-(2,6-dioxopiperidin-3-yl)-1-thioxoisoindolin-5-yl)methyl)piperazin-1-yl)phenyl)amino)-5-(trifluoromethyl)pyrimidin-4-yl)amino)methyl)phenyl) -N-methylmethanesulfonamide] | 53 to 60 | 60 to 80 | A (0% ≤ substrate protein remaining % ≤ 80%) | 5 to 10 | 60 to 70 |  |
| CN(c1nccnc1CNc1nc(Nc2ccc(N3CCN(Cc4cccc5c4CN(C4CCC(=O)NC4=O)C5=S)CC3)cc2)ncc1C(F)(F)F)S(C)(=O)=O (stereo not shown) [GT-08783, N-(3-(((2-((4-(4-((2-(2,6-dioxopiperidin-3-yl)-1-thioxoisoindolin-4-yl)methyl)piperazin-1-yl)phenyl)amino)-5-(trifluoromethyl)pyrimidin-4-yl)amino)methyl)pyrazin-2-yl)-N-methylmethanesulfonamide] | 40 to 53 | 60 to 80 | A (0% ≤ substrate protein remaining % ≤ 80%) | 20 to 30 | 70 to 80 |  |
| CN(c1cccc(CNc2nc(Nc3ccc(N4CCN(Cc5cccc6c5CN(C5CCC(=O)NC5=O)C6=S)CC4)cc3)ncc2C(F)(F)F)c1)S(C)(=O)=O (stereo not shown) [GT-08883, N-(3-(((2-((4-(4-((2-(2,6-dioxopiperidin-3-yl)-1-thioxoisoindolin-4-yl)methyl)piperazin-1-yl)phenyl)amino)-5-(trifluoromethyl)pyrimidin-4-yl)amino)methyl)phenyl) -N-methylmethanesulfonamide] | 40 to 53 | 53 to 60 | A (0% ≤ substrate protein remaining % ≤ 80%) | 20 to 30 | 70 to 80 | inhibition at 0.01 µM (MM.1S): 10 to 20%; inhibition at 0.5 µM (MM.1S): 40 to 50%; inhibition at 0.01 µM (SW620; Table I-12, FAK inhibitors): 30 to 40%; inhibition at 0.5 µM (SW620; Table I-12, FAK inhibitors): 40 to 50% |
| CC(C)(C)c1cnc(CSc2cnc(NC(=O)C3CCN(Cc4ccc5c(c4)CN(C4CCC(=O)NC4=O)C5=S)CC3)s2)o1 (stereo not shown) [GT-09435, N-(5-(((5-(tert-butyl)oxazol-2-yl)methyl)thio)thiazol-2-yl)-1-((2-(2,6-dioxopiperidin-3-yl)-1-thioxoisoindolin-5-yl)methyl)piperidine-4-carboxamide] | 40 to 53 | 80 to 100 |  |  |  | inhibition at 0.01 µM (TMD8; Table I-7, CDK9 inhibitors): 0 to 5%; inhibition at 0.5 µM (TMD8; Table I-7, CDK9 inhibitors): 70 to 80% |
| Nc1ncnc2c1c(-c1ccc(Oc3ccccc3)cc1)nn2C1CCN(Cc2ccc3c(c2)CN(C2CCC(=O)NC2=O)C3=S)CC1 (stereo not shown) [GT-09436, 3-(5-((4-(4-amino-3-(4-phenoxyphenyl)-1H-pyrazolo[3,4-d]pyrimidin-1-yl)piperidin-1-yl)methyl)-1-thioxoisoindolin-2-yl)piperidine-2,6-dione] | 40 to 53 | 80 to 100 |  |  |  | inhibition at 0.01 µM (TMD8; Table I-4, BTK inhibitors): 15 to 20%; inhibition at 0.5 µM (TMD8; Table I-4, BTK inhibitors): 80 to 100%; inhibition at 0.01 µM (SW620; Table I-4, BTK inhibitors): 70 to 80%; inhibition at 0.5 µM (SW620; Table I-4, BTK inhibitors): 80 to 100% |
| Cc1ccc(C(=O)Nc2ccc(CN3CCN(Cc4ccc5c(c4)C(=S)N(C4CCC(=O)NC4=O)C5)CC3)c(C(F)(F)F)c2)cc1C#Cc1cnc2cccnn12 (stereo not shown) [GT-09439, N-(4-((4-((2-(2,6-dioxopiperidin-3-yl)-3-thioxoisoindolin-5-yl)methyl)piperazin-1-yl)methyl)-3-(trifluoromethyl)phenyl)-3-(imidazo[1,2-b]pyridazin-3-ylethynyl)-4-methylbenzamide] |  |  |  |  |  | inhibition at 0.01 µM (CFPAC-1; [2]): 5 to 10%; inhibition at 0.5 µM (CFPAC-1; [3]): 60 to 70% |
| C=CC(=O)Nc1cc(Nc2nccc(-c3cn(C)c4ccccc34)n2)c(OC)cc1N(C)CCN(C)C [Osimertinib, reference compound] |  |  |  |  |  | Degradation of substrate protein EGFR (EGFR): No degradation |
| C=CC(=O)N1CCC[C@@H](n2nc(-c3ccc(Oc4ccccc4)cc3)c3c(N)ncnc32)C1 [ibrutinib, Ibrutinib, reference compound] | 0 to 10 | 10 to 20 |  |  |  | inhibition at 0.01 µM (TMD8; Table I-4, BTK inhibitors): -5 to 0%; inhibition at 0.5 µM (TMD8; Table I-4, BTK inhibitors): 30 to 40%; inhibition at 0.01 µM (SW620; Table I-4, BTK inhibitors): -5 to 0%; inhibition at 0.5 µM (SW620; Table I-4, BTK inhibitors): 0 to 5% |
